Results: PubChem BioAssay (NCI)
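How tested: cells in 96-well plates exposed to compound for 48 hours at five concentrations. At the GI50, growth is halved. TGI denotes the concentration required for complete inhibition of growth.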

Assays:
Assay in all cases: DTP human tumour cell line panel, 48 h
UACC-257 melanoma = test system: UACC-257 melanoma
SW-620 colon = test system: SW-620 colon
SNB-19 CNS = test system: SNB-19 CNS
SK-MEL-2 melanoma = test system: SK-MEL-2 melanoma
M14 melanoma = test system: M14 melanoma
SK-MEL-5 melanoma = test system: SK-MEL-5 melanoma
MOLT-4 leukemia = test system: MOLT-4 leukemia
IGROV1 ovarian = test system: IGROV1 ovarian
HCC-2998 colon = test system: HCC-2998 colon
MDA-MB-231 breast = test system: MDA-MB-231 breast

CN(/N=C/c1cccc2cccnc12)c1ccccc1
TGI (UACC-257 melanoma): > 100 µM | TGI (SW-620 colon): > 100 µM | TGI (SNB-19 CNS): > 100 µM | TGI (SK-MEL-2 melanoma): > 100 µM | TGI (M14 melanoma): > 100 µM | TGI (SK-MEL-5 melanoma): > 100 µM | TGI (MOLT-4 leukemia): > 100 µM | TGI (IGROV1 ovarian): > 100 µM | TGI (HCC-2998 colon): > 100 µM

C/C=C(/COC(C)=O)C(=O)OC1C=C(C=O)C(C)(C)C=C1C (configuration not stated)
TGI (UACC-257 melanoma): > 100 µM | TGI (SW-620 colon): > 100 µM | TGI (SNB-19 CNS): > 100 µM | TGI (SK-MEL-2 melanoma): > 100 µM | TGI (M14 melanoma): > 100 µM | TGI (SK-MEL-5 melanoma): > 100 µM | TGI (IGROV1 ovarian): > 100 µM | TGI (HCC-2998 colon): > 100 µM | TGI (MDA-MB-231 breast): > 100 µM

Nc1[nH]nc2nc(-c3cccs3)cc(C(F)(F)F)c12
GI50 (UACC-257 melanoma): > 25 µM | TGI (UACC-257 melanoma): > 25 µM | GI50 (SW-620 colon): > 25 µM | TGI (SW-620 colon): > 25 µM | GI50 (SNB-19 CNS): > 25 µM | TGI (SNB-19 CNS): > 25 µM | GI50 (SK-MEL-2 melanoma): > 22.3 µM | TGI (SK-MEL-2 melanoma): > 25 µM | GI50 (M14 melanoma): > 25 µM | TGI (M14 melanoma): > 25 µM | GI50 (SK-MEL-5 melanoma): > 25 µM | TGI (SK-MEL-5 melanoma): > 25 µM | GI50 (IGROV1 ovarian): > 25 µM | TGI (IGROV1 ovarian): > 25 µM | GI50 (HCC-2998 colon): > 25 µM | TGI (HCC-2998 colon): > 25 µM | GI50 (MDA-MB-231 breast): > 25 µM | TGI (MDA-MB-231 breast): > 25 µM

COc1ccc(C(C#N)Cc2cc(OC)c(OC)c(OC)c2)cc1 (configuration not stated)
TGI (UACC-257 melanoma): > 100 µM | TGI (SW-620 colon): > 100 µM | TGI (SNB-19 CNS): > 100 µM | TGI (M14 melanoma): > 100 µM | TGI (SK-MEL-5 melanoma): 37.3 µM | TGI (MOLT-4 leukemia): > 100 µM | TGI (IGROV1 ovarian): > 100 µM

N#CC(c1nc2ccccc2nc1Cl)S(=O)(=O)c1ccccc1 (configuration not stated)
TGI (UACC-257 melanoma): > 100 µM | TGI (SW-620 colon): > 100 µM | TGI (SNB-19 CNS): > 100 µM | TGI (SK-MEL-2 melanoma): > 100 µM | TGI (M14 melanoma): > 100 µM | TGI (SK-MEL-5 melanoma): > 100 µM | TGI (MOLT-4 leukemia): > 100 µM | TGI (HCC-2998 colon): > 100 µM

Cc1[nH]c2ccccc2c1C1Cc2ccccc2N1C(=O)/C=C/C(=O)O (configuration not stated)
TGI (UACC-257 melanoma): > 100 µM | TGI (SW-620 colon): > 100 µM | TGI (SNB-19 CNS): > 100 µM | TGI (SK-MEL-2 melanoma): > 100 µM | TGI (M14 melanoma): > 100 µM | TGI (SK-MEL-5 melanoma): > 100 µM | TGI (MOLT-4 leukemia): > 100 µM | TGI (IGROV1 ovarian): > 100 µM | TGI (HCC-2998 colon): > 100 µM

CN1c2ccccc2N(C)C23N(C)c4ccccc4N(C)C12N(C)c1ccccc1N3C (configuration not stated)
TGI (UACC-257 melanoma): > 100 µM | TGI (SW-620 colon): > 100 µM | TGI (SNB-19 CNS): > 100 µM | TGI (SK-MEL-2 melanoma): > 100 µM | TGI (M14 melanoma): > 100 µM | TGI (SK-MEL-5 melanoma): > 100 µM | TGI (MOLT-4 leukemia): > 100 µM | TGI (IGROV1 ovarian): > 100 µM | TGI (HCC-2998 colon): > 100 µM

CCOC(=O)NC(=O)c1cn(CCN2CCN(c3ncnc4nc[nH]c34)CC2)c(=O)[nH]c1=O
TGI (UACC-257 melanoma): > 100 µM | TGI (SW-620 colon): > 100 µM | TGI (SNB-19 CNS): > 100 µM | TGI (SK-MEL-2 melanoma): > 100 µM | TGI (M14 melanoma): > 100 µM | TGI (SK-MEL-5 melanoma): > 100 µM | TGI (MOLT-4 leukemia): > 100 µM | TGI (IGROV1 ovarian): > 100 µM | TGI (HCC-2998 colon): > 100 µM

CCc1cccc(C)c1NC(=O)C(=O)Cc1nc2ccccc2s1
TGI (UACC-257 melanoma): > 100 µM | TGI (SW-620 colon): > 100 µM | TGI (SNB-19 CNS): > 100 µM | TGI (SK-MEL-2 melanoma): > 100 µM | TGI (M14 melanoma): > 100 µM | TGI (SK-MEL-5 melanoma): > 100 µM | TGI (MOLT-4 leukemia): > 100 µM | TGI (IGROV1 ovarian): 20.8 µM | TGI (HCC-2998 colon): > 100 µM

COC(=O)c1cc(Cl)ccc1NC(=O)c1ccc([N+](=O)[O-])cc1
TGI (UACC-257 melanoma): > 100 µM | TGI (SW-620 colon): > 100 µM | TGI (SK-MEL-2 melanoma): > 100 µM | TGI (M14 melanoma): 90.7 µM | TGI (SK-MEL-5 melanoma): > 100 µM | TGI (MOLT-4 leukemia): > 100 µM | TGI (IGROV1 ovarian): 57.8 µM | TGI (HCC-2998 colon): > 100 µM

CCCOC(=O)N1CCN(/[N+]([O-])=N/Oc2ccc([N+](=O)[O-])cc2[N+](=O)[O-])CC1
GI50 (UACC-257 melanoma): 9.52 µM | TGI (UACC-257 melanoma): 24.2 µM | GI50 (SNB-19 CNS): 5.08 µM | TGI (SNB-19 CNS): 18.7 µM | GI50 (SK-MEL-2 melanoma): 2.71 µM | TGI (SK-MEL-2 melanoma): 7.78 µM | GI50 (SK-MEL-5 melanoma): 2.35 µM | TGI (SK-MEL-5 melanoma): 7.53 µM | GI50 (MOLT-4 leukemia): 2.35 µM | TGI (MOLT-4 leukemia): > 100 µM | GI50 (IGROV1 ovarian): 1.3 µM | TGI (IGROV1 ovarian): 4.05 µM | GI50 (MDA-MB-231 breast): 2.29 µM | TGI (MDA-MB-231 breast): 4.83 µM

Cc1ccccc1NC(=O)C(=O)CC(=O)c1c(C)n([O-])c2ccccc2[n+]1=O
TGI (UACC-257 melanoma): > 100 µM | TGI (SW-620 colon): > 100 µM | TGI (SNB-19 CNS): > 100 µM | TGI (SK-MEL-2 melanoma): > 100 µM | TGI (M14 melanoma): > 100 µM | TGI (IGROV1 ovarian): > 100 µM | TGI (HCC-2998 colon): > 100 µM

O=C1CC(S(=O)(=O)O)C=C1Nc1cccc(Cl)c1 (configuration not stated)
TGI (UACC-257 melanoma): > 100 µM | TGI (SW-620 colon): > 100 µM | TGI (SNB-19 CNS): > 100 µM | TGI (SK-MEL-2 melanoma): > 100 µM | TGI (M14 melanoma): > 100 µM | TGI (SK-MEL-5 melanoma): > 100 µM | TGI (MOLT-4 leukemia): > 100 µM | TGI (IGROV1 ovarian): > 100 µM | TGI (HCC-2998 colon): > 100 µM

COc1ccc(/C=N/N=C(\N)NO)c(OC)c1
TGI (UACC-257 melanoma): > 100 µM | TGI (SW-620 colon): > 100 µM | TGI (SNB-19 CNS): > 100 µM | TGI (SK-MEL-2 melanoma): > 100 µM | TGI (SK-MEL-5 melanoma): > 100 µM | TGI (MOLT-4 leukemia): > 100 µM | TGI (IGROV1 ovarian): > 100 µM | TGI (HCC-2998 colon): 43.7 µM

COc1ccc(OC)c2c1C(=O)C1CC1(Br)C2=O (configuration not stated)
TGI (UACC-257 melanoma): > 100 µM | TGI (SW-620 colon): > 100 µM | TGI (SNB-19 CNS): > 100 µM | TGI (SK-MEL-2 melanoma): > 100 µM | TGI (M14 melanoma): > 100 µM | TGI (SK-MEL-5 melanoma): > 100 µM | TGI (MOLT-4 leukemia): > 100 µM | TGI (IGROV1 ovarian): > 100 µM | TGI (HCC-2998 colon): > 100 µM

O=CN/C=C/c1ccc(O)c(O)c1
TGI (UACC-257 melanoma): > 100 µM | TGI (SW-620 colon): > 100 µM | TGI (SNB-19 CNS): > 100 µM | TGI (SK-MEL-2 melanoma): > 100 µM | TGI (M14 melanoma): > 100 µM | TGI (MOLT-4 leukemia): > 100 µM | TGI (IGROV1 ovarian): > 100 µM | TGI (HCC-2998 colon): > 100 µM

C1=C2/CC[C@H](Sc3ccccc3)[C@H]2C2(CCCCC/1)OCCO2
TGI (UACC-257 melanoma): 55 µM | TGI (SW-620 colon): > 100 µM | TGI (SNB-19 CNS): > 100 µM | TGI (SK-MEL-2 melanoma): 33.2 µM | TGI (M14 melanoma): 93 µM | TGI (SK-MEL-5 melanoma): 59.1 µM | TGI (IGROV1 ovarian): > 100 µM | TGI (HCC-2998 colon): 41.3 µM

Cc1ccc(N2C(=O)C3C=CC(n4[nH]c(=O)n(Cc5ccccc5)c4=O)CC3C2=O)cc1 (configuration not stated)
TGI (UACC-257 melanoma): > 100 µM | TGI (SW-620 colon): > 100 µM | TGI (SNB-19 CNS): > 100 µM | TGI (SK-MEL-2 melanoma): > 100 µM | TGI (M14 melanoma): > 100 µM | TGI (SK-MEL-5 melanoma): > 100 µM | TGI (MOLT-4 leukemia): > 100 µM | TGI (IGROV1 ovarian): > 100 µM | TGI (HCC-2998 colon): > 100 µM

O=CC1CCCc2ccccc21 (configuration not stated)
TGI (UACC-257 melanoma): > 100 µM | TGI (SW-620 colon): > 56.6 µM | TGI (SNB-19 CNS): > 100 µM | TGI (SK-MEL-2 melanoma): > 100 µM | TGI (M14 melanoma): > 100 µM | TGI (SK-MEL-5 melanoma): > 100 µM | TGI (MOLT-4 leukemia): > 100 µM | TGI (IGROV1 ovarian): > 100 µM | TGI (HCC-2998 colon): > 100 µM

CCOC(=O)C(=Cc1cccnc1C)C(=O)OCC
TGI (UACC-257 melanoma): 20.7 µM | TGI (SW-620 colon): 17.5 µM | TGI (SNB-19 CNS): 23.6 µM | TGI (SK-MEL-2 melanoma): 16 µM | TGI (M14 melanoma): 24.2 µM | TGI (SK-MEL-5 melanoma): 25.1 µM | TGI (MOLT-4 leukemia): 46.9 µM | TGI (IGROV1 ovarian): 25 µM

Cc1cccc(C(C)C)c1NC(=O)CC1C(=O)Nc2ccccc2S1(=O)=O (configuration not stated)
TGI (UACC-257 melanoma): > 70.8 µM | TGI (SW-620 colon): 30.4 µM | TGI (SNB-19 CNS): > 68 µM | TGI (SK-MEL-2 melanoma): > 62 µM | TGI (M14 melanoma): > 64.2 µM | TGI (SK-MEL-5 melanoma): 46.4 µM | TGI (MOLT-4 leukemia): 10.2 µM | TGI (IGROV1 ovarian): > 51 µM | TGI (HCC-2998 colon): > 56.2 µM

O=c1c2ccccc2nc(-c2ccccc2)n1NC1OC(CO)C(O)C(O)C1O (configuration not stated)
TGI (UACC-257 melanoma): > 100 µM | TGI (SW-620 colon): > 100 µM | TGI (SNB-19 CNS): > 100 µM | TGI (SK-MEL-2 melanoma): > 100 µM | TGI (M14 melanoma): > 100 µM | TGI (SK-MEL-5 melanoma): > 100 µM | TGI (MOLT-4 leukemia): > 100 µM | TGI (IGROV1 ovarian): > 100 µM | TGI (HCC-2998 colon): > 100 µM
